Experimental data as given in patent US8815772B2, “Fungicidal heterocyclic carboxamides” (E I du Pont de Nemours and Company, priority 2012, dated 2014).
Marks after values point to notes of the source that are not given here.

How the values were obtained:
Botrytis cinerea = experiment: Test B: tomato botrytis, preventive spray on tomato seedlings, visual disease rating; settings: for Test B rating (disease control): rating without asterisk, 100 = 100% disease control, 0 = no disease control relative to the controls
Text: (§2) General protocol for preparing test suspensions for Tests A-H: the test compounds were first dissolved in acetone in an amount equal to 3% of the final volume and then suspended at the desired concentration (in ppm) in acetone and purified water (50/50 mix by volume) containing 250 ppm of the surfactant Trem® 014 (polyhydric alcohol esters). The resulting test suspensions were then used in Tests A-H. Spraying a 200 ppm test suspension to the point of run-off on the test plants was the equivalent of a rate of 600 g/ha. Unless otherwise indicated, the rating values indicate a 200 ppm test suspension was used.
The test suspension was sprayed to the point of run-off on tomato seedlings. The following day the seedlings were inoculated with a spore suspension of Botrytis cinerea (the causal agent of tomato botrytis) and incubated in saturated atmosphere at 20° C. for 48 h, and then moved to a growth chamber at 24-27° C. for 2-3 days, after which time visual disease ratings were made.
A dash (-) indicates no test results. An asterisk “*” next to the rating value indicates a 40 ppm test suspension was used, a double asterisk “**” next to the rating value indicates a 130 ppm test suspension was used.

[1] = system: Blumeria graminis f. sp. tritici; experiment: Test H: wheat powdery mildew, preventive spray on wheat seedlings, visual disease rating
Text: General protocol for preparing test suspensions for Tests A-H: the test compounds were first dissolved in acetone in an amount equal to 3% of the final volume and then suspended at the desired concentration (in ppm) in acetone and purified water (50/50 mix by volume) containing 250 ppm of the surfactant Trem® 014 (polyhydric alcohol esters). The resulting test suspensions were then used in Tests A-H. Spraying a 200 ppm test suspension to the point of run-off on the test plants was the equivalent of a rate of 600 g/ha. Unless otherwise indicated, the rating values indicate a 200 ppm test suspension was used. (In Table A, an asterisk “*” next to the rating value indicates a 40 ppm test suspension was used; a double asterisk “**” next to the rating value indicates a 130 ppm.)
The test suspension was sprayed to the point of run-off on wheat seedlings. The following day the seedlings were inoculated with a spore dust of Blumeria graminis f. sp. tritici (also known as Erysiphe graminis f. sp. tritici, the causal agent of wheat powdery mildew) and incubated in a growth chamber at 20° C. for 8 days, after which time visual disease ratings were made.
(§3) An asterisk “*” next to the rating value indicates a 40 ppm test suspension was used, a double asterisk “**” next to the rating value indicates a 130 ppm test suspension was used.

[2] = system: Puccinia recondita f. sp. tritici; experiment: Test G: wheat leaf rust, preventive spray on wheat seedlings, visual disease rating
Text: as §2
The test suspension was sprayed to the point of run-off on wheat seedlings. The following day the seedlings were inoculated with a spore suspension of Puccinia recondita f. sp. tritici (the causal agent of wheat leaf rust) and incubated in a saturated atmosphere at 20° C. for 24 h, and then moved to a growth chamber at 20° C. for 6 days, after which time visual disease ratings were made.
as §3

Phytophthora infestans = format: in vivo; settings: rating without asterisk; 100 = 100% disease control, 0 = no disease control relative to the controls
Septoria nodorum = experiment: Test E: Septoria glume blotch, preventive spray on wheat seedlings, visual disease rating; format: in vivo
Text: (§1) A dash (-) indicates no test results.

Septoria tritici = experiment: Test F: wheat leaf blotch, preventive spray on wheat seedlings, visual disease rating; format: in vivo
Text: as §1

cucumber seedlings = experiment: Test I: phytotoxicity to the cucumber seedlings of the test units; format: in vivo; settings: 250 ppm active ingredient applied to soil, 7 days
Method: Control of the southern root-knot nematode (Meloidogyne incognita) through contact and/or systemic means was evaluated in test units consisting of small open containers filled with a sandy soil mixture and cucumber seedlings.
Test compounds were formulated using a solution containing 50% acetone and 50% water. Test compounds were applied directly to the soil of the test units at concentrations of 250 or 50 ppm active ingredient. Each test was replicated 3 times. After treatment, the test units were allowed to dry for 1 h, after which time about 250 second-stage juvenile (J2) larvae were pipetted into the soil. The test units were held at 27° C. and watered as needed for 7 days.
Nematocidal efficacy was determined by the amount of root gall formation observed when compared to an untreated control. No gall formation was indicative of 100% nematode control. Gall formation equivalent to that found in the untreated control was indicative of 0% control. No nematode control rating was given to compounds showing significant phytotoxicity.

Plasmopara viticola = experiment: Test A: grape downy mildew, curative spray on grape seedlings, visual disease rating; format: in vivo; settings: rating without asterisk; 100 = 100% disease control, 0 = no disease control relative to the controls
Text: Upon removal, visual disease ratings were made. […] A dash (-) indicates no test results.

Alternaria solani = experiment: Test C: tomato early blight, preventive spray on tomato seedlings, visual disease rating; format: in vivo; settings: rating without asterisk; 100 = 100% disease control, 0 = no disease control relative to the controls
Text: as §1

[3] = rating without asterisk, 100 = 100% disease control, 0 = no disease control relative to the controls

| Molecule | Test B rating (disease control) (Botrytis cinerea) | Test H rating (disease control) [1, 3] | Test G rating (disease control) [2, 3] | Test D rating (disease control) (Phytophthora infestans) | Test E rating (disease control) (Septoria nodorum; [3]) | Test F rating (disease control) (Septoria tritici; [3]) | phytotoxicity (cucumber seedlings) | Test A rating (disease control) (Plasmopara viticola) | Test H rating (disease control) ([1]; * 40 ppm test suspension) | Test G rating (disease control) ([2]; * 40 ppm test suspension) | Test E rating (disease control) (Septoria nodorum; * 40 ppm test suspension) | Test F rating (disease control) (Septoria tritici; * 40 ppm test suspension) | Test B rating (100 = 100% disease control, 0 = no disease control relative to the controls) (Botrytis cinerea; no asterisk: standard test suspension, tomato botrytis) | Test H rating (100 = 100% disease control, 0 = no disease control relative to the controls) ([1]; no asterisk: standard test suspension, wheat powdery mildew) | Test G rating (100 = 100% disease control, 0 = no disease control relative to the controls) ([2]; no asterisk: standard test suspension, wheat leaf rust) | Test C rating (disease control) (Alternaria solani) |
| --- | --- | --- | --- | --- | --- | --- | --- | --- | --- | --- | --- | --- | --- | --- | --- | --- |
| CC(Cc1ccc(-n2ccc(C(F)(F)F)n2)cc1Cl)NC(=O)c1nccnc1Cl (stereo not drawn) [Compound 1] | 99% | 100% | 54% | 0% | 100% | 100% | – | – | – | – | – | – | – | – | – | – |
| O=C(NCCc1ccc(-n2ccc(C(F)(F)F)n2)cc1Cl)c1ncccc1C(F)(F)F [Compound 40, N-[2-[2-chloro-4-[3-(trifluoromethyl)-1H-pyrazol-1-yl]phenyl]ethyl]-3-(trifluoromethyl)-2-pyridinecarboxamide] | 66% | 100% | 0% | 0% | 100% | 100% | no significant phytotoxicity | – | – | – | – | – | – | – | – | – |
| Cn1cc(C(=O)Nc2ccccc2-c2cc(F)c(-n3ccc(C(F)(F)F)n3)c(F)c2)c(C(F)F)n1 [Compound 173, 3-(difluoromethyl)-N-[3′,5′-difluoro-4′-[3-(trifluoromethyl)-1H-pyrazol-1-yl][1,1′-biphenyl]-2-yl]-1-methyl-1H-pyrazole-4-carboxamide] | 72% | 100% | 100% | 0% | 100% | 100% | – | 0% | – | – | – | – | – | – | – | – |
| O=C(NCC(F)(F)c1ccc(-n2ccc(C(F)(F)F)n2)cc1Cl)c1ncccc1C(F)(F)F [Compound 150, N-[2-[2-chloro-4-[3-(trifluoromethyl)-1H-pyrazol-1-yl]phenyl]-2,2-difluoroethyl]-3-(trifluoromethyl)-2-pyridinecarboxamide] | – | – | – | – | – | – | no significant phytotoxicity | – | 100* % | 0* % | 100* % | 100* % | – | – | – | – |
| O=C(Nc1ccccc1-c1cc(F)c(-n2ccc(C(F)(F)F)n2)c(F)c1)c1ncccc1C(F)(F)F [Compound 172, N-[3′,5′-difluoro-4′-[3-(trifluoromethyl)-1H-pyrazol-yl][1,1′-biphenyl]-2-yl]-3-(trifluoromethyl)-2-pyridinecarboxamide] | 65% | 100% | 100% | 0% | 100% | 100% | – | 0% | – | – | – | – | – | – | – | – |
| O=C(Nc1ccccc1-c1cc(F)c(-n2ccc(C(F)(F)F)n2)c(F)c1)c1cccnc1Cl [Compound 170, 2-chloro-N-[3′,5′-difluoro-4′-[3-(trifluoromethyl)-1H-pyrazol-1-yl][1,1′-biphenyl]-2-yl]-3-pyridinecarboxamide] | 0% | 100% | 100% | 0% | 0% | 100% | – | 0% | – | – | – | – | – | – | – | – |
| 3-difluoromethyl)-N-[3′,5′-difluoro-4′-(1-methyl-1H-pyrazol-3-yl)[1,1′-biphenyl]-2-yl]-1-methyl-1H-pyrazole [Compound 232] | – | – | – | – | – | – | – | – | – | – | – | – | 81% | 97% | 100% | – |
| O=C(NCCc1ncc(-n2ccc(C(F)(F)F)n2)cc1Cl)c1ccccc1C(F)(F)F [Compound 85, N-[2-[3-chloro-5-[(3-trifluoromethyl)-1H-pyrazol-1-yl]-2-pyridinyl]ethyl]-2-(trifluoromethyl)benzamide] | 95% | 100% | 0% | 0% | 100% | 100% | – | 0% | – | – | – | – | – | – | – | – |
| O=C(NCCc1ccc(-n2ccc(C(F)(F)F)n2)cc1)c1ccccc1C(F)(F)F [Compound 5, 2-(trifluoromethyl)-N-[2-[4-[3-(trifluoromethyl)-1H-pyrazol-1-yl]phenyl]ethyl]benzamide] | 17% | 96% | 0% | 0% | 0% | 100% | no significant phytotoxicity | – | – | – | – | – | – | – | – | 83% |
